Structures can show the parent of a compound that is named as a salt.
Columns and labels:
Assay type in all cases: biochemical
[1] = biological target: T1, catalytic domain of human stromelysine (Homo sapiens, UniProt P08254); assay: Enzyme inhibition, catalytic domain of human stromelysine (fluorogenic substrate); settings: hydroxamic acids up to and including Example 33; tris/HCl buffer pH=7.5; read-out: Stromelysine IC 50
T1 construct: enzymatic activity of the catalytic domains of human stomelysine and of neutrophil collagenase; made in house
Experimental: (§1) Preparation and determination of the enzymatic activity of the catalytic domains of human stomelysine and of neutrophil collagenase.
(§2) The two enzymes were prepared according to Ye et al., (Biochemistry 31 (1992) 11231-5). To measure the enzyme activity or enzyme inhibitor action, 70 μl of buffer solution and 10 μl of enzyme solution are incubated for 15 minutes with 10 μl of a 10% strength (v/v) aqueous dimethyl sulfoxide solution, which optionally contains the enzyme inhibitor. After addition of 10 μl of a 10% strength (v/v) aqueous dimethyl sulfoxide solution which contains 1 mmol/l of the substrate, the enzyme reaction is monitored by fluorescence spectroscopy (328 nm (ex)/393 nm(em)). The enzyme activity is shown as extinction increase/minute. […] The buffer solution contains 0.05% of Brij (Sigma, Deisenhofen, Germany) and also 0.1 mol/l of tris/HCl, 0.1 mol/l of NaCl, 0.01 mol/l of CaCl2 (pH=7.5) for the determination of the hydroxamic acids up to and including Example 33, or, for the determination of the carboxylic acids from Example 34, 0.1 mol/l of piperazine-N,N′-bis[2-ethanesulfonic acid] pH=6.5.
(§3) The enzyme solution contains 5 μg/ml of one of the enzyme domains prepared according to Ye et al. The substrate solution contains 1 mmol/l of the fluorogenic substrate (7-methoxycoumarin-4-yl)acetyl-Pro-Leu-Gly-Leu-3-(2′,4′-dinitrophenyl)-L-2,3-diaminopropionyl-Ala-Arg-NH2 (Bachem, Heidelberg, Germany).

[2] = biological target: T2, catalytic domain of neutrophil collagenase (Homo sapiens, UniProt P22894); assay: Enzyme inhibition, catalytic domain of neutrophil collagenase (fluorogenic substrate); settings: hydroxamic acids up to and including Example 33; tris/HCl buffer pH=7.5; read-out: Neutrophil collagenase IC 50
T2 construct: enzymatic activity of the catalytic domains of human stomelysine and of neutrophil collagenase; made in house
Experimental: as §1, §2, §3

[3] = biological target: T3, catalytic domain of stromelysine-1 (Homo sapiens, UniProt P08254); assay: Proteoglycan degradation assay (bovine aggrecan, ELISA with antibody 5-D-4); settings: bovine nasal proteoglycane, 60 ng stromelysine-1 catalytic domain, MES pH 6.0, RT 3 h
T3 construct: enzymatic activity of the catalytic domains of human stomelysine and of neutrophil collagenase; made in house
Experimental: In the proteoglycan degradation assay, the extent of the degradation of native bovine aggrecan, the most important proteoglycan of the cartilage, is measured. The released proteoglycan fragments are determined using the monoclonal antibody 5-D-4 which recognizes the keratan sulfate side-chains which are located at the carboxy terminal of the G2 domain of aggrecan. Thus, the assay detects primarily pathologically important degradations which take place in the interglobular domain of aggrecan.
After addition of compounds of the formula I and the enzyme in the form of the catalytic domain of stromelysine-1, the amount of hyaluronic acid-bound aggrecan which remains after degradation is measured. The more aggrecan is detected, the lower the residual activity of the enzyme.
Description of the Test Protocol:
Wells of 96 well microtiter plates (Nunc, Maxisorp) each containing 100 μl of hyaluronic acid solution (25 μg/ml of hyaluronic acid (Sigma) in PBS) are incubated at room temperature (RT) for 12 h. The hyaluronic acid solution is removed by suction and the remaining free protein binding sites of the wells are saturated with in each case […] of a 5% strength solution of bovine serum albumin (BSA), 0.05% of Tween20 in PBS at RT for 1 h. The wells are subsequently covered with proteoglycane by incubating the wells with 100 μl each of a solution of bovine nasal proteoglycane (ICI) (200 μg/ml in 1×PBS, 5 mg/ml of BSA, 0.05% of Tween20) at RT for 1 h. The wells are washed twice with 1×PBS, 0.1% Tween20 to remove the free proteoglycanes. Subsequently, for the actual assay, 60 ng of purified catalytic domain of Stromelysine-1 (for the recombinant expression and purification, see Ye et al. (1992)) plus corresponding concentrations of the inhibitor to be tested in 100 μl of degradation buffer (100 mM MES pH 6.0, 100 mM NaCl, 10 mM CaCl2, 0.05% of Brij) are pipetted into the wells and incubated at RT for 3 h. The wells are washed twice with 1×PBS, 0.1% of Tween20 and then incubated with 100 μl of a solution of the detection antibody (monoclonal antibody done 5-D-4 (ICI), immunoreactive with the keratan sulfate side-chains of the proteoglycane, dilution 1:1000 in 1×PBS, 5 mg/ml BSA, 0.05% Tween20). The wells are washed twice with 1×PBS, 0.1% of Tween20, after which the immune reaction of the bound detection antibodies is carried out using 100 μl per well of an antibody solution for detection (goat anti Maus IgG, labeled with peroxidase (Dianova), diluted 1:1000 in 1×PBS, 5 mg/ml of BSA, 0.05% of Tween20) at RT for 1 h. The wells are again washed twice (as above), and the color reaction is then initiated using 100 μl each of 2 mg/ml of ABTS, activated with H2O2. The reaction products are measured in an ELISA reader at a wavelength of […].

T2 sequence (P22894 100-262 limits assumed): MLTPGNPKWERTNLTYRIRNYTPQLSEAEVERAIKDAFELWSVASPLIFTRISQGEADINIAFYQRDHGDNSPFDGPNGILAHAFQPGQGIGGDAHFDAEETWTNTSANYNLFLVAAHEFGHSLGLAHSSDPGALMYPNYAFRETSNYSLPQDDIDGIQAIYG
T1 sequence (P08254 100-272 limits assumed): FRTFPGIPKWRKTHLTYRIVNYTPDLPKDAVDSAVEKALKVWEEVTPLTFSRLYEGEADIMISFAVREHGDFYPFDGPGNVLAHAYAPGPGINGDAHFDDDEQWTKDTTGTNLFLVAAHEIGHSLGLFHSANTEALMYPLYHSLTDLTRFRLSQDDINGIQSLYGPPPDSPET
T3 sequence (P08254 100-272 limits assumed): as above

## O=C(c1ccccc1)c1ccc(S(=O)(=O)N2Cc3ccccc3C[C@@H]2C(=O)NO)cc1 [Example 18]
[1]
  IC50: 30 nM
[2]
  IC50: 3 nM
[3]
  IC50: 41 nM

## O=C(NO)C1Cc2ccccc2CN1S(=O)(=O)c1ccc(-c2ccccc2)cc1 (stereo not drawn) [Example 2]
[1]
  IC50: 20 nM
[2]
  IC50: 0.2 nM
[3]
  IC50: 85 nM

## CN(C)c1ccc(Oc2ccc(S(=O)(=O)N3Cc4ccccc4C[C@@H]3C(=O)NO)cc2)cc1 [Example 14]
[1]
  IC50: 30 nM
[2]
  IC50: 2 nM
[3]
  IC50: 6.7 nM

## CCOC(=O)Oc1ccc2c(c1)CN(S(=O)(=O)c1ccc(OC)cc1)[C@@H](C(=O)NO)C2 [Example 21]
[1]
  IC50: 20 nM
[2]
  IC50: 2 nM
[3]
  IC50: 65 nM

## COc1ccc(S(=O)(=O)N2Cc3nc[nH]c3C[C@@H]2C(=O)NO)cc1 [Example 29, R-5-(4-methoxybenzenesulfonyl)-4,5,6,7-tetrahydro-1H-imidazo-(4,5-c)-pyridine-6-hydroxamic acid hydrochloride]
[1]
  IC50: 20 nM
[2]
  IC50: 4 nM
[3]
  IC50: 25 nM

## O=C(Nc1ccc(S(=O)(=O)N2Cc3ccccc3C[C@@H]2C(=O)NO)cc1)OCc1ccccc1 [Example 9]
[1]
  IC50: 400 nM
[2]
  IC50: 800 nM
[3]
  IC50: 1600 nM

## O=C(NO)[C@H]1Cc2ccccc2CN1S(=O)(=O)c1ccc(Oc2ccccc2)cc1 [Example 13c, R-2-(4-phenoxybenzenesulfonyl)-1,2,3,4-tetrahydroisoquinoline-3-hydroxamic acid]
[1]
  IC50: 20 nM
[2]
  IC50: 2 nM
[3]
  IC50: 51 nM

Source: patent US6815440B2, “Cyclic and heterocyclic N-substituted α-iminohydroxamic and -carboxylic acids” (Aventis Pharma Deutschland GmbH, priority 1995, dated 2004)
